Assay results published in article PMC5515969, “Effects of 31 FDA approved small-molecule kinase inhibitors on isolated rat liver mitochondria” (Archives of Toxicology, 2016).

Assays:
[1] = tested on: isolated rat liver mitochondria; assay: Mitochondrial toxicity, any endpoint, intact mitochondria and submitochondrial particles; type: biochemical; settings: any endpoint
Procedure: Rats were anesthetized by an intraperitoneal injection of Nembutal and the liver perfused with PBS to remove the blood. The liver was then cut into small pieces and homogenized using a Dounce type homogenizer in the ice-cold isolation buffer (IB) containing 200 mM sucrose, 10 mM Tris-MOPS, 1 mM EGTA (pH 7.4). The sample was then centrifuged at 600g for 10 min. The supernatant was further centrifuged at 7500g for 10 min, and the pellets was washed once with the IB and centrifuged again at 7500g for 10 min to collect mitochondria. […] Before drug treatment, the protein concentration was adjusted to 1 mg/ml using appropriate buffer. […] Briefly, mitochondrial and cytosolic fractions from four different preparations using four rats were diluted using the Laemmli protein loading buffer and subject to SDS-PAGE with 4–20% gradient gels. The proteins were blotted to PVDF membranes and detected using antibodies against GAPDH, ATP5A, UQCRC2, SDHB, and NDUFB8.
The aliquoted stock solutions were kept for less than one month and each tube was used only once. The KIs were added to the mitochondria at 1:1000 dilutions. […] The Cmax data were from clinical trials which used FDA recommend dosages, route of administration, and duration. […] The final concentration of DMSO for drug treatment was always 0.1%, and control treatments were 0.1% DMSO.

[2] = tested on: RCC I–V; assay: Activities of RCC I–V, overall statements; type: biochemical, rat; settings: submitochondrial particles
Procedure: KIs were incubated with submitochondrial particles (1 mg/ml) for 15 min and then RCC I–V activities measured. […] The activities of DMSO-treated samples (controls) were set as 1. […] The difference between the activity from rotenone-containing buffer and rotenone-absent buffer was considered as RCC I activity. […] For measuring RCC I/V and II activity, the changes in absorbance at 340 and 600 nm, respectively, were determined every 1 min for 6 min. For measuring RCC III and RCC IV, the changes in absorbance at 550 nm were measured every 10 s for 2 min.

[3] = tested on: isolated rat liver mitochondria; assay: Mitochondrial swelling (absorbance at 535 nm); type: biochemical
[4] = tested on: RCC I; assay: RCC I activity in submitochondrial particles; type: biochemical, rat; settings: 15 min, DMSO-treated = 100
Method in brief: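 Kinase inhibitors were preincubated 15 min with submitochondrial particles (1 mg/ml) before complex activities were measured. RCC I was the rotenone-sensitive portion (activity without minus with rotenone). RCC I/V was read at 340 nm and RCC II at 600 nm every 1 min for 6 min. RCC III and IV were read at 550 nm every 10 s for 2 min. Activities are normalized to DMSO controls set as 1.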

[5] = tested on: isolated rat liver mitochondria; assay: Mitochondrial inner membrane potential (MMP), Rhodamine 123; type: biochemical
From the text: Fig. 3 KI effects on mitochondrial inner membrane potential (MMP). […] In a, c, data are means and standard derivations from three separate experiments. *p < 0.05 as compared to DMSO-treated samples at the end of experiments. In b, data are means of two independent experiments

[6] = human therapeutic Cmax at FDA recommended dosages; ref product labeling and drug approval packages at the official FDA website; cited from earlier work
[7] = tested on: RCC III; assay: RCC III activity in submitochondrial particles; type: biochemical, rat; settings: 15 min, DMSO-treated = 100
Method in brief: (§1)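 Absorbance kinetics: A340 (RCC I, V) and A600 (RCC II) read each minute over 6 min, A550 (RCC III, IV) every 10 s over 2 min; RCC I taken as […]. Particles (1 mg/ml) pretreated 15 min with compound; DMSO-treated activity = 1.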

[8] = tested on: RCC V; assay: RCC V activity in submitochondrial particles; type: biochemical, rat; settings: 15 min, DMSO-treated = 100
Method in brief: as §1

[9] = tested on: RCC IV; assay: RCC IV activity in submitochondrial particles; type: biochemical, rat; settings: 15 min, DMSO-treated = 100
Method in brief: as §1

[10] = tested on: isolated rat liver mitochondria; assay: Mitochondrial oxygen consumption (glutamate/malate or succinate driven, state 4 and state 3); type: biochemical
Method in brief: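 Oxygen uptake on glutamate/malate or on succinate defined state 4; ADP added 3 min later gave state 3. Mitochondria isolated from rat liver by differential centrifugation, adjusted to 1 mg/ml and pretreated 5 min with inhibitor (0.1% DMSO final). Values relative to DMSO control, set to 1.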

[11] = cited from earlier work; for DILI potential (based on labeling): ref FDA product labeling
[12] = up to 100-fold Cmax or highest testable concentration
[13] = 10-fold Cmax, oxygen consumption, DMSO-treated = 1
[14] = 20-fold Cmax, oxygen consumption, DMSO-treated = 1
[15] = 30-fold Cmax, oxygen consumption, DMSO-treated = 1

COc1cc2nccc(Oc3ccc(NC(=O)C4(C(=O)Nc5ccc(F)cc5)CC4)cc3)c2cc1OC [Cabozantinib]
lowest concentration causing significant mitochondrial toxicity [1]: 10 fold Cmax
RCCs inhibited [2, 12]: both RCC I and RCC II
lowest concentration causing mitochondrial swelling [3]: 20 fold Cmax
effect on mitochondrial swelling ([3]; up to 100-fold Cmax or highest testable concentration, 25 µM calcium chloride): significant mitochondrial swelling
RCC activity I ([4]; 30-fold Cmax): 80.97 ± 2.99 % of control
lowest concentration decreasing MMP [5]: tenfold
effect on MMP [5, 12]: decrease in MMP
Cmax [6]: 2.58 µM
RCC activity III ([7]; 30-fold Cmax): 90.73 ± 14.60 % of control
RCC activity V ([8]; 30-fold Cmax): 91.99 ± 8.51 % of control
RCC activity IV ([9]; 30-fold Cmax): 113.10 ± 9.48 % of control
Glutamate/malate driven respiration State 4 [10, 13]: 1.46 ± 0.08
Succinate-driven respiration State 3 [10, 13]: 1.03 ± 0.01
Succinate-driven respiration State 4 [10, 13]: 1.23 ± 0.11
Glutamate/malate driven respiration State 3 [10, 14]: 0.92 ± 0.05
Glutamate/malate driven respiration State 4 [10, 14]: 1.30 ± 0.15
Succinate-driven respiration State 3 [10, 14]: 0.94 ± 0.06
Succinate-driven respiration State 4 [10, 14]: 1.24 ± 0.05
Glutamate/malate driven respiration State 4 [10, 15]: 1.55 ± 0.06
Succinate-driven respiration State 3 [10, 15]: 0.95 ± 0.05
Succinate-driven respiration State 4 [10, 15]: 1.35 ± 0.18
effect on state 4 respiration ([10]; highest tested concentrations): significant increases
lowest concentration significantly affecting mitochondrial oxygen consumption ([10]; tested at 1 to 100-fold Cmax): tenfold
DILI potential (based on labeling) [11]: 0

C#Cc1cccc(Nc2ncnc3cc(OCCOC)c(OCCOC)cc23)c1 [Erlotinib]
lowest concentration inhibiting RCCs [2]: 10 fold Cmax
RCC activity I ([4]; 10-fold Cmax): 90.62 ± 2.87 % of control
Cmax [6]: 3.44 µM
RCC activity III ([7]; 10-fold Cmax): 103.11 ± 12.25 % of control
RCC activity V ([8]; 10-fold Cmax): 83.52 ± 2.96 % of control
RCC activity IV ([9]; 10-fold Cmax): 98.77 ± 4.53 % of control
labeling for DILI ([11]; in vivo): W&P: fatal DILI
DILI potential (based on labeling) [11]: 1
